Patent US20120323002A1, “IMIDAZOPYRIDAZINE COMPOUNDS” (AJINOMOTO CO., INC., priority 2009, published 2012)

Columns and labels:
Format in all cases: cell-based, mouse (female Balb/c)
[1] = test system: IL-12p70 (IL-12p35/p40 complex); experiment: Cytokine inhibiting action using mouse peritoneal macrophages: IL-12p70 production (ELISA); settings: Peritoneal macrophage, 100 ng/mL mouse interferon-γ + 0.05% (v/v) SAC, incubated overnight, 50% production inhibition concentration
Description: (§1) 1 mL of a 3% (w/v) thioglycolate solution was intraperitoneally administered to a mouse (female Balb/c). 5 or 6 days later, the peritoneal cells of the mouse were collected, and the adherent cells were used for evaluation. 100 ng/mL of mouse interferon-γ, a 0.05% (v/v) suspension of killed Staphylococcus aureus Cowan I strain (SAC) and a compound of the present invention were added thereto and incubated overnight. After the incubation, the survival rate was measured, and each of IL-12p70 (IL-12p35/p40 complex) and TNF-α was quantified by ELISA using the collected culture supernatant to calculate the 50% production inhibition concentration (IC50) (refer to Table 1; meanwhile, the blanks in the table indicate unmeasured).

TNF-α = experiment: Cytokine inhibiting action using mouse peritoneal macrophages: TNF-α production (ELISA); settings: Peritoneal macrophage, 100 ng/mL mouse interferon-γ + 0.05% (v/v) SAC, incubated overnight, 50% production inhibition concentration
Description: as §1

[2] = test system: IL-12p70 (IL-12p35/p40 complex); experiment: Cytokine inhibiting action using mouse whole blood: IL-12p70 production (ELISA); settings: mouse whole blood (EDTA), 200 ng/mL mouse interferon-γ + 1.25% (v/v) SAC, incubated overnight; 50% production inhibition concentration
Description: The blood (EDTA addition) was collected from a mouse (female Balb/c) and used for evaluation. 200 ng/mL of mouse interferon-γ, a 1.25% (v/v) suspension of killed Staphylococcus aureus Cowan I strain (SAC) and a compound of the present invention were added to a cell culture medium, diluted to become a quantity equal to the blood and incubated overnight.

Row | Structure (SMILES) | IC50 [1] [nM] | IC50 (TNF-α) [nM] | IC50 [2] [nM]
1 | Cc1cccc(/C=N/Nc2cc(N3CCOCC3)c3nc(-c4ccccc4)cn3n2)c1 [Compound 1, N-(3-methyl-benzylidene)-N′-(8-morpholin-4-yl-2-phenyl-imidazo[1,2-b]pyridazin-6-yl)-hydrazine] | 32 | – | –
2 | C(=N\Nc1cc(N2CCOCC2)c2nc(-c3ccccc3)cn2n1)/c1c[nH]c2ccccc12 [Compound 2, N-(1H-indol-3-yl-methylidene)-N′-(8-morpholin-4-yl-2-phenyl-imidazo[1,2-b]pyridazin-6-yl)-hydrazine] | 36 | – | –
3 | Cc1cccc(/C=N/Nc2cc(N3CCOCC3)c3nc(-c4cccnc4)cn3n2)c1 [Compound 3, N-(3-methyl-benzylidene)-N′-(8-morpholin-4-yl-2-pyridin-3-yl-imidazo[1,2-b]pyridazin-6-yl)-hydrazine] | 8.7 | > 10000 | 3000
4 | Cc1cccc(/C=N/Nc2cc(N3CCOCC3)c3nc(-c4ccncc4)cn3n2)c1 [Compound 4, N-(3-methyl-benzylidene)-N′-(8-morpholin-4-yl-2-pyridin-4-yl-imidazo[1,2-b]pyridazin-6-yl)-hydrazine] | 3.6 | > 10000 | 470
5 | Cc1cccc(/C=N/Nc2cc(N3CCOCC3)c3nc(-c4cnn(-c5ccccc5)c4C)cn3n2)c1 [Compound 5, N-(3-methyl-benzylidene)-N′-[2-(5-methyl-1-phenyl-1H-pyrazol-4-yl)-8-morpholin-4-yl-imidazo[1,2-b]pyridazin-6-yl]-hydrazine] | 33 | – | –
6 | C(=N\Nc1cc(N2CCOCC2)c2nc(-c3ccncc3)cn2n1)/c1c[nH]c2ccccc12 [Compound 6, N-(1H-indol-3-yl-methylidene)-N′-(8-morpholin-4-yl-2-pyridin-4-yl-imidazo[1,2-b]pyridazin-6-yl)-hydrazine] | 92 | – | –
7 | Cc1cccc(/C=N/Nc2cc(N3CCOCC3)c3nc(-c4ccc(N5CCCC5)cc4)cn3n2)c1 [Compound 7, N-(3-methyl-benzylidene)-N′-[8-morpholin-4-yl-2-(4-pyrrolidin-1-yl-phenyl)-imidazo[1,2-b]pyridazin-6-yl]-hydrazine] | 40 | – | –
8 | Cc1cccc(/C=N/Nc2cc(N3CCOCC3)c3nc(-c4ccc(-c5ccccn5)s4)cn3n2)c1 [Compound 8, N-(3-methyl-benzylidene)-N′-[8-morpholin-4-yl-2-(5-pyridin-2-yl-thiophen-2-yl)-imidazo[1,2-b]pyridazin-6-yl]-hydrazine] | 15 | – | 1500
9 | C(=N\Nc1cc(N2CCOCC2)c2nc(-c3ccncc3)cn2n1)/c1coc2ccccc12 [Compound 9, N-benzofuran-3-yl-methylidene-N′-(8-morpholin-4-yl-2-pyridin-4-yl-imidazo[1,2-b]pyridazin-6-v)-hydrazine] | 76 | – | 890
10 | CCc1cccc(/C=N/Nc2cc(N3CCOCC3)c3nc(-c4ccncc4)cn3n2)c1 [Compound 10, N-(3-ethyl-benzylidene)-N′-(8-morpholin-4-yl-2-pyridin-4-yl-imidazo[1,2-b]pyridazin-6-yl)-hydrazine] | 8.1 | – | 180
11 | C(=N\Nc1cc(N2CCOCC2)c2nc(-c3ccncc3)cn2n1)/c1csc2ccccc12 [Compound 11, N-benzo[b]thiophen-3-yl-methylidene-N′-(8-morpholin-4-yl-2-pyridin-4-yl-imidazo[1,2-b]pyridazin-6-yl)-hydrazine] | 30 | – | 1000
12 | Cc1[nH]c2ccc(/C=N/Nc3cc(N4CCOCC4)c4nc(-c5ccncc5)cn4n3)cc2c1C [Compound 12, N-(2,3-dimethyl-1H-indol-5-yl-methylidene)-N′-(8-morpholin-4-yl-2-pyridin-4-yl-imidazo[1,2-b]pyridazin-6-yl)-hydrazine] | 140 | – | –
13 | Cc1ccc(/C=N/Nc2cc(N3CCOCC3)c3nc(-c4ccncc4)cn3n2)o1 [Compound 13, N-(5-methyl-furan-2-yl-methylidene)-N′-(8-morpholin-4-yl-2-pyridin-4-yl-imidazo[1,2-b]pyridazin-6-yl)-hydrazine] | 190 | – | –
14 | CC(C)c1cccc(/C=N/Nc2cc(N3CCOCC3)c3nc(-c4ccncc4)cn3n2)c1 [Compound 14, N-(3-isopropyl-benzylidene)-N′-(8-morpholin-4-yl-2-pyridin-4-yl-imidazo[1,2-b]pyridazin-6-yl)-hydrazine] | 130 | – | –
15 | C(=N\Nc1cc(N2CCOCC2)c2nc(-c3ccncc3)cn2n1)/c1ccc2cc[nH]c2c1 [Compound 15, N-(1H-indol-6-yl-methylidene)-N′-(8-morpholin-4-yl-2-pyridin-4-yl-imidazo[1,2-b]pyridazin-6-yl)-hydrazine] | 54 | – | –
16 | C=C(C)c1cccc(/C=N/Nc2cc(N3CCOCC3)c3nc(-c4ccncc4)cn3n2)c1 [Compound 16, N-(3-isopropenyl-benzylidene)-N′-(8-morpholin-4-yl-2-pyridin-4-yl-imidazo[1,2-b]pyridazin-6-yl)-hydrazine] | 77 | – | –
17 | CC(=O)c1cccc(/C=N/Nc2cc(N3CCOCC3)c3nc(-c4ccncc4)cn3n2)c1 [Compound 17, N-(3-acetyl-benzylidene)-N′-(8-morpholin-4-yl-2-pyridin-4-yl-imidazo[1,2-b]pyridazin-6-yl)-hydrazine] | 37 | – | –
18 | CCCCC(C)c1cccc(/C=N/Nc2cc(N3CCOCC3)c3nc(-c4ccncc4)cn3n2)c1 (stereo not drawn) [Compound 18, N-[3-(1-methyl-pentyl)-benzylidene]-N′-(8-morpholin-4-yl-2-pyridin-4-yl-imidazo[1,2-b]pyridazin-6-yl)-hydrazine] | 1100 | – | –

Continued, values first:

Row | IC50 [1] [nM] | IC50 (TNF-α) [nM] | IC50 [2] [nM] | Structure (SMILES)
19 | 6.4 | – | – | C=Cc1cccc(/C=N/Nc2cc(N3CCOCC3)c3nc(-c4ccncc4)cn3n2)c1 [Compound 19, N-(3-vinyl-benzylidene)-N-(8-morpholin-4-yl-2-pyridin-4-yl-imidazo[1,2-b]pyridazin-6-yl)-hydrazine]
20 | 9.4 | – | 150 | C(=N\Nc1cc(N2CCOCC2)c2nc(-c3ccncc3)cn2n1)/c1ccc2occc2c1 [Compound 20, N-benzofuran-5-ylmethylene-N′-(8-morpholin-4-yl-2-pyridin-4-yl-imidazo[1,2-b]pyridazin-6-yl)-hydrazine]
21 | 16 | – | 340 | C(=N\Nc1cc(N2CCOCC2)c2nc(-c3ccncc3)cn2n1)/c1cc2ccccc2[nH]1 [Compound 21, N-(1H-indol-2-ylmethylene)-N-(8-morpholin-4-yl-2-pyridin-4-yl-imidazo[1,2-b]pyridazin-6-yl)-hydrazine]
22 | 40 | – | 110 | FC(F)c1cccc(/C=N/Nc2cc(N3CCOCC3)c3nc(-c4ccncc4)cn3n2)c1 [Compound 22, N-(3-difluoromethyl-benzylidene)-N-(8-morpholin-4-yl-2-pyridin-4-yl-imidazo[1,2-b]pyridazin-6-yl)-hydrazine]
23 | 63 | – | 550 | CN(C)c1cccc(/C=N/Nc2cc(N3CCOCC3)c3nc(-c4ccncc4)cn3n2)c1 [Compound 23, N-(3-dimethylamino-benzylidene)-N-(8-morpholin-4-yl-2-pyridin-4-yl-imidazo[1,2-b]pyridazin-6-yl)-hydrazine]
24 | 370 | – | – | Cc1ccc(/C=N/Nc2cc(N3CCOCC3)c3nc(-c4ccncc4)cn3n2)[nH]1 [Compound 24, N-(5-methyl-1H-pyrrol-2-ylmethylene)-N-(8-morpholin-4-yl-2-pyridin-4-yl-imidazo[1,2-b]pyridazin-6-yl)-hydrazine]
25 | 44 | – | 63 | Cc1ccc(/C=N/Nc2cc(N3CCOCC3)c3nc(-c4ccncc4)cn3n2)cc1 [Compound 25, N-(4-methyl-benzylidene)-N′-(8-morpholin-4-yl-2-pyridin-4-yl-imidazo[1,2-b]pyridazin-6-yl)-hydrazine]
26 | 46 | – | 270 | FCc1ccc(/C=N/Nc2cc(N3CCOCC3)c3nc(-c4ccncc4)cn3n2)cc1 [Compound 26, N-(4-fluoromethyl-benzylidene)-N′-(8-morpholin-4-yl-2-pyridin-4-yl-imidazo[1,2-b]pyridazin-6-yl)-hydrazine]
27 | 44 | – | 1200 | CN1CCc2ccc(/C=N/Nc3cc(N4CCOCC4)c4nc(-c5ccncc5)cn4n3)cc21 [Compound 27, N-(N-methylindoline-6-ylmethylene)-N-(8-morpholin-4-yl-2-pyridin-4-yl-imidazo[1,2-b]pyridazin-6-yl)-hydrazine]
28 | 76 | – | 290 | Cc1ccccc1/C=N/Nc1cc(N2CCOCC2)c2nc(-c3ccncc3)cn2n1 [Compound 28, N-(2-methyl-benzylidene)-N′-(8-morpholin-4-yl-2-pyridin-4-yl-imidazo[1,2-b]pyridazin-6-yl)-hydrazine]
29 | 1.1 | – | 1400 | Cc1cccc(/C=N/Nc2cc(N3CCOCC3)c3nc(-c4cn[nH]c4)cn3n2)c1 [Compound 29, N-(3-methyl-benzylidene)-N′-{8-morpholin-4-yl-2-(1H-pyrazol-4-yl)-imidazo[1,2-b]pyridazin-6-yl}-hydrazine]
30 | 5.2 | – | 1900 | Cc1ccc(-c2cn3nc(N/N=C/c4c[nH]c5ccccc45)cc(N4CCOCC4)c3n2)cn1 [Compound 30, N-(1H-indol-3-yl-methylene)-N′-[2-(6-methyl-pyridin-3-yl)-8-morpholin-4-yl-imidazo[1,2-b]pyridazin-6-yl]-hydrazine]
